Earlier results on one compound are cited in publication PMC6017028 (Molecules : A Journal of Synthetic Chemistry and Natural …, 2018).

By pKa is commonly meant the pH at which an ionisable group is half protonated.

Details of this series: method as in PMID 17531180. The conditions noted are these: weak organic acid; cited from earlier work.

Take `O=c1[nH]c(=O)c2[nH]c(=O)[nH]c2[nH]1` [Uric acid]: the pKa was 5.75.
